Source: patent US20130023501A1, “PHARMACEUTICAL COMPOSITION COMPRISING SOLVENT MIXTURE AND A VITAMIN D DERIVATIVE OR ANALOGUE” (LEO PHARMA A/S, priority 2009, published 2013)

Experiments:
[1] = Skin penetration and permeation, Franz diffusion cells; format: in vitro ADME; settings: addition of menthol to the composition; 21 hours; pig ear skin; FIG. 1
Procedure: To investigate the skin penetration and permeation of calcipotriol from compositions of the invention, a skin diffusion experiment was conducted. Full thickness skin from pig ears was used in the study. The ears were kept frozen at −18° C. before use. On the day prior to the experiment the ears were placed in a refrigerator (5±3° C.) for slow defrosting. On the day of the experiment, the hairs were removed using a veterinary hair trimmer. The skin was cleaned for subcutaneous fat using a scalpel and two pieces of skin were cut from each ear and mounted on Franz diffusion cells in a balanced order.
Static Franz-type diffusion cells with an available diffusion area of 3.14 cm^2 and receptor volumes ranging from 8.6 to 11.1 ml—were used in substantially the manner described by T. J. Franz, “The finite dose technique as a valid in vitro model for the study of percutaneous absorption in man”, in Current Problems in Dermatology, 1978, J. W. H. Mall (Ed.), Karger, Basel, pp. 58-68. The specific volume was measured and registered for each cell. A magnetic bar was placed in the receptor compartment of each cell. […]
The in vitro skin permeation of each test composition was tested in 6 replicates (i.e. n=6). […] A glass spatula was used for the application, and the residual amount of the composition was determined so as to give the amount of the composition actually applied on the skin. […]

[2] = Amount of MCT required to dissolve calcipotriol in a tested ointment composition; format: physicochemical
[3] = one study, Hannuksela et al. 1975; cited from earlier work

Row | SMILES | skin permeation of calcipotriol [1] | MCT required to completely dissolve calcipotriol [2] | number of irritant reactions to propylene glycol [3]
1 | C=C1/C(=C\C=C2/CCC[C@]3(C)[C@@H]([C@H](C)/C=C/[C@@H](O)C4CC4)CC[C@@H]23)C[C@@H](O)C[C@@H]1O [calcipotriol, Calcipotriol] | significant increase | about 50% | –
2 | CC(O)CO (stereo not drawn) [propylene glycol] | – | – | 12.5%
